Laboratory results published in publication PMC3848336, “Aurora Isoform Selectivity: Design and Synthesis of Imidazo[4,5-b]pyridine Derivatives as Highly Selective Inhibitors of Aurora-A Kinase in Cells” (Journal of Medicinal Chemistry, 2013).

Experiments:
Test in all cases: Kinase selectivity profiling
Format in all cases: biochemical
ASK1 = ASK1 (Homo sapiens, UniProt Q99683); details: 110-kinase panel
Text: (§1) Compound 28c was profiled against a panel of 110 kinases at the International Centre for Protein Kinase Profiling, Division of Signal Transduction Therapy, University of Dundee. Compound 40f was profiled against a panel of 50 kinases (MRC-PPU Express Screen) also at the International Centre for Protein Kinase Profiling.

BRSK2 = BRSK2 (Homo sapiens, UniProt Q8IWQ3); details: 110-kinase panel
Text: as §1

CHK1 = CHK1 (Homo sapiens, UniProt O14757); details: 110-kinase panel
Text: as §1

CLK2 = CLK2 (Homo sapiens, UniProt P49760); details: 110-kinase panel
Text: as §1

CSK = CSK (Homo sapiens, UniProt P41240); details: 110-kinase panel
Text: as §1

DAPK1 = DAPK1 (Homo sapiens, UniProt P53355); details: 110-kinase panel
Text: as §1

DYRK3 = DYRK3 (Homo sapiens, UniProt O43781); details: 110-kinase panel
Text: as §1

EPH-A4 = EPH-A4 (Homo sapiens, UniProt P54764); details: 110-kinase panel, read-out: % activity remaining, EPH2A4
Text: as §1

EPH-B1 = EPH-B1 (Homo sapiens, UniProt P54762); details: 110-kinase panel, read-out: % activity remaining, EPH2B1
Text: as §1

EPH-B3 = EPH-B3 (Homo sapiens, UniProt P54753); details: 110-kinase panel, read-out: % activity remaining, EPH2B3
Text: as §1

EPH-B4 = EPH-B4 (Homo sapiens, UniProt P54760); details: 110-kinase panel, read-out: % activity remaining, EPH2B4
Text: as §1

ERK1 = ERK1 (Homo sapiens, UniProt P27361); details: 110-kinase panel
Text: as §1

ERK2 = ERK2 (Homo sapiens, UniProt P28482); details: 110-kinase panel
Text: as §1

GCK = GCK (Homo sapiens, UniProt Q12851); details: 110-kinase panel
Text: as §1

HIPK1 = HIPK1 (Homo sapiens, UniProt Q86Z02); details: 110-kinase panel
Text: as §1

IKKb = IKKb (Homo sapiens, UniProt O14920); details: 110-kinase panel
Text: as §1

IKKe = IKKe (Homo sapiens, UniProt Q14164); details: 110-kinase panel
Text: as §1

IR = IR (Homo sapiens, UniProt P06213); details: 110-kinase panel
Text: as §1

JNK3 = JNK3 (Homo sapiens, UniProt P53779); details: 110-kinase panel
Text: as §1

MAPKAP-K2 = MAPKAP-K2 (Homo sapiens, UniProt P49137); details: 110-kinase panel, read-out: % activity remaining, MAPKAP2K2
Text: as §1

MAPKAP-K3 = MAPKAP-K3 (Homo sapiens, UniProt Q16644); details: 110-kinase panel, read-out: % activity remaining, MAPKAP2K3
Text: as §1

MARK4 = MARK4 (Homo sapiens, UniProt Q96L34); details: 110-kinase panel
Text: as §1

MELK = MELK (Homo sapiens, UniProt Q14680); details: 110-kinase panel
Text: as §1

MINK1 = MINK1 (Homo sapiens, UniProt Q8N4C8); details: 110-kinase panel
Text: as §1

MKK2 = MKK2 (Homo sapiens, UniProt P36507); details: 110-kinase panel
Text: as §1

MKK6 = MKK6 (Homo sapiens, UniProt P52564); details: 110-kinase panel
Text: as §1

MLK1 = MLK1 (Homo sapiens, UniProt P80192); details: 110-kinase panel
Text: as §1

MNK1 = MNK1 (Homo sapiens, UniProt Q9BUB5); details: 110-kinase panel
Text: as §1

MNK2 = MNK2 (Homo sapiens, UniProt Q9HBH9); details: 110-kinase panel
Text: as §1

NEK2a = NEK2a (Homo sapiens, UniProt P51955); details: 110-kinase panel
Text: as §1

PAK2 = PAK2 (Homo sapiens, UniProt Q13177); details: 110-kinase panel
Text: as §1

PAK6 = PAK6 (Homo sapiens, UniProt Q9NQU5); details: 110-kinase panel
Text: as §1

PHK = PHK (Homo sapiens, UniProt Q16816); details: 110-kinase panel
Text: as §1

PIM2 = PIM2 (Homo sapiens, UniProt Q9P1W9); details: 110-kinase panel
Text: as §1

PIM3 = PIM3 (Homo sapiens, UniProt Q86V86); details: 110-kinase panel
Text: as §1

PKCz = PKCz (Homo sapiens, UniProt Q05513); details: 110-kinase panel
Text: as §1

PRAK = PRAK (Homo sapiens, UniProt Q8IW41); details: 110-kinase panel
Text: as §1

TAO1 = TAO1 (Homo sapiens, UniProt Q7L7X3); details: 110-kinase panel
Text: as §1

YES1 = YES1 (Homo sapiens, UniProt P07947); details: 110-kinase panel
Text: as §1

p38d MAPK = p38d MAPK (Homo sapiens, UniProt O15264); details: 110-kinase panel
Text: as §1

p38g MAPK = p38g MAPK (Homo sapiens, UniProt P53778); details: 110-kinase panel
Text: as §1

MKK6, sequence (P52564 whole entry, species assumed): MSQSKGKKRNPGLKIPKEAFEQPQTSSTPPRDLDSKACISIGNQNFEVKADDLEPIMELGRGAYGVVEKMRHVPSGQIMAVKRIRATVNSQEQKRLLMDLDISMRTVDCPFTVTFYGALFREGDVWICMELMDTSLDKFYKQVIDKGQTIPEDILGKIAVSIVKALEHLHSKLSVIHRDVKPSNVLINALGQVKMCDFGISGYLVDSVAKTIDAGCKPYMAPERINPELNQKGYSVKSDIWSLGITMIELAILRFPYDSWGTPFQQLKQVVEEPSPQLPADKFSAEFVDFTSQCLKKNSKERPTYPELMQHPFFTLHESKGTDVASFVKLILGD
MARK4, sequence (Q96L34 whole entry): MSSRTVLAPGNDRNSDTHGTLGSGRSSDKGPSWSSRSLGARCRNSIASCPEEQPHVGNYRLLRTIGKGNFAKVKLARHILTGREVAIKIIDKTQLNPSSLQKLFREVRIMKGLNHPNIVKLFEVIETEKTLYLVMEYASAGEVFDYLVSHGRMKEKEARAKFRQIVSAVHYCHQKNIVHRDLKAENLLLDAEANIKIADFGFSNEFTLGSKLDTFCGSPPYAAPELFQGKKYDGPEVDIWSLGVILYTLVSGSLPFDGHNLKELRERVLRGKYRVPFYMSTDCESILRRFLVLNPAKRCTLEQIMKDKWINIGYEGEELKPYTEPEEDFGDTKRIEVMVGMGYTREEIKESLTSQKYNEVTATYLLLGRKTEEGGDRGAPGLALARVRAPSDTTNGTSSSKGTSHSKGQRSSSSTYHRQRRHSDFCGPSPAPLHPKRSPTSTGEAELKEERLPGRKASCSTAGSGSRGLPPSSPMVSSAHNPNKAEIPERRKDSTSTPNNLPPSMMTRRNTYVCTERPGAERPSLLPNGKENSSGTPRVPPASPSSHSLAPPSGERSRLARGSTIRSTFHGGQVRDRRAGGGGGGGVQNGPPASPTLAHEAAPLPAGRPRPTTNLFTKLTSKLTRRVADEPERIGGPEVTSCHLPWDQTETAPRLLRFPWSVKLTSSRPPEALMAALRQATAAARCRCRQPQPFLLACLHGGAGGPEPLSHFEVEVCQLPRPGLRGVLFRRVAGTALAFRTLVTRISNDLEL
EPH-A4, sequence (P54764 20-986): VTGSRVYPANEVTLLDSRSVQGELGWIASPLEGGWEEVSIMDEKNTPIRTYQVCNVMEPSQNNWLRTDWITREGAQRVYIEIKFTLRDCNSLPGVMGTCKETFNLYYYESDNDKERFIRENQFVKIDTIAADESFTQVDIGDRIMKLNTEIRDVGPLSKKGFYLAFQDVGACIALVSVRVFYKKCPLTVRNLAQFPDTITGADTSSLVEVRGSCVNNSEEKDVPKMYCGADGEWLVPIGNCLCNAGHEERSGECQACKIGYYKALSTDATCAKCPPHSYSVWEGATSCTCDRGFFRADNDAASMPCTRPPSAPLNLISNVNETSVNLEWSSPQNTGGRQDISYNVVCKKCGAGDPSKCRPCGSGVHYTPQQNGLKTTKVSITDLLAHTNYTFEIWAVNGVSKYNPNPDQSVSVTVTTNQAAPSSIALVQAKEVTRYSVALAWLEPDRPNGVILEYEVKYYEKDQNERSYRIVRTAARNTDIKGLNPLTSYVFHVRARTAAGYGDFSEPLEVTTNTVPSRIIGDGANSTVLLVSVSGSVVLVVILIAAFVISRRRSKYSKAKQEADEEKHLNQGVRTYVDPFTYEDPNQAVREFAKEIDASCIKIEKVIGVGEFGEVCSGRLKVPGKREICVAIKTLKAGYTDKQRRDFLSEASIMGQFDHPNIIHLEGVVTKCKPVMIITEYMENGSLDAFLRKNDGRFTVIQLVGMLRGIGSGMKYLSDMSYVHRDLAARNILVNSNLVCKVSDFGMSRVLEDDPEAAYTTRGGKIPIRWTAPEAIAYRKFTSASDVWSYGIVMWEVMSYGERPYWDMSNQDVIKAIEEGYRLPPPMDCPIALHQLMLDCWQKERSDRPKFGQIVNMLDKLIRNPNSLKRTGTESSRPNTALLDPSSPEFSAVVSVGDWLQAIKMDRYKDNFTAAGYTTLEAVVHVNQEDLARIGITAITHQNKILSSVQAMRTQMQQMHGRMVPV
YES1, sequence (P07947 whole entry): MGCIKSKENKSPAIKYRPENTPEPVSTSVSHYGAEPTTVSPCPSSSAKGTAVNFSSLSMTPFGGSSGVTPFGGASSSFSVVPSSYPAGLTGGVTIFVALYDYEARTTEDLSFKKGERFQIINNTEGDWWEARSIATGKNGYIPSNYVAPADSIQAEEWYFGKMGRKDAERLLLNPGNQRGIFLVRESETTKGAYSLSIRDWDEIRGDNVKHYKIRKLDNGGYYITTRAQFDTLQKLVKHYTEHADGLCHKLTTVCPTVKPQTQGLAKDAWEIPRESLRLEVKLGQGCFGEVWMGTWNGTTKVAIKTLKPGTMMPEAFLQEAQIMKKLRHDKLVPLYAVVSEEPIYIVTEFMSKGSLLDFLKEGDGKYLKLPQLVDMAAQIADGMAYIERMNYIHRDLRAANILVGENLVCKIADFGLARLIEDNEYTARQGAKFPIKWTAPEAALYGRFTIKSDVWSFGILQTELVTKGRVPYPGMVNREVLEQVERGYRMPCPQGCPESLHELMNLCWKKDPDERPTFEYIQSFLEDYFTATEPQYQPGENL
PAK6, sequence (Q9NQU5 whole entry): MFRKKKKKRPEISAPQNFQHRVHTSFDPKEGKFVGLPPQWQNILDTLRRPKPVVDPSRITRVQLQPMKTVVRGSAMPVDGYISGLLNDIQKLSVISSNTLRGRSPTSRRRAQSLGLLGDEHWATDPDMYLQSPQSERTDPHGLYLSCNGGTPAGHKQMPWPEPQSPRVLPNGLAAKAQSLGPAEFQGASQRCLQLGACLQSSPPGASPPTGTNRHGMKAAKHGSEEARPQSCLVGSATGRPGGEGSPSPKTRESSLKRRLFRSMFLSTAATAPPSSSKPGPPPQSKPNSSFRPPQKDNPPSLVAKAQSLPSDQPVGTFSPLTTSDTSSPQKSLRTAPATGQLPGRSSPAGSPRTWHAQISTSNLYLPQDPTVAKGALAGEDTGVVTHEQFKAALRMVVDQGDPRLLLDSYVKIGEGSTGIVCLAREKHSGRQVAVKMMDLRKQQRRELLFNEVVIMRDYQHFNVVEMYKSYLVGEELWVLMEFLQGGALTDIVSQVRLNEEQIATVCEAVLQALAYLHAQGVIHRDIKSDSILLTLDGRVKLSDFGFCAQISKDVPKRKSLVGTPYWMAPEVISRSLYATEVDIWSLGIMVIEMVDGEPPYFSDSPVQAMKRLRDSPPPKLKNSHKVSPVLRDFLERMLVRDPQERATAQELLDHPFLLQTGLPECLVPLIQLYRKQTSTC
ERK1, sequence (P27361 whole entry, species assumed): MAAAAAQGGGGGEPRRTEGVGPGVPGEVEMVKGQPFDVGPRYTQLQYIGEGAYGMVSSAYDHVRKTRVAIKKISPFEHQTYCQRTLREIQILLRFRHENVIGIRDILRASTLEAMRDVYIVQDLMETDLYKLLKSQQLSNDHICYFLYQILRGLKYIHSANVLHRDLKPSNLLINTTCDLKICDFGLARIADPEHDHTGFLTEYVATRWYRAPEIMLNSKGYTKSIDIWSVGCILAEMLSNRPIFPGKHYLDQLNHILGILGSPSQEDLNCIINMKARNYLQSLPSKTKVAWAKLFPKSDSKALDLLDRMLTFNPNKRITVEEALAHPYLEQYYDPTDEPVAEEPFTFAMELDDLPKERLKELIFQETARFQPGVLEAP
DYRK3, sequence (O43781 whole entry): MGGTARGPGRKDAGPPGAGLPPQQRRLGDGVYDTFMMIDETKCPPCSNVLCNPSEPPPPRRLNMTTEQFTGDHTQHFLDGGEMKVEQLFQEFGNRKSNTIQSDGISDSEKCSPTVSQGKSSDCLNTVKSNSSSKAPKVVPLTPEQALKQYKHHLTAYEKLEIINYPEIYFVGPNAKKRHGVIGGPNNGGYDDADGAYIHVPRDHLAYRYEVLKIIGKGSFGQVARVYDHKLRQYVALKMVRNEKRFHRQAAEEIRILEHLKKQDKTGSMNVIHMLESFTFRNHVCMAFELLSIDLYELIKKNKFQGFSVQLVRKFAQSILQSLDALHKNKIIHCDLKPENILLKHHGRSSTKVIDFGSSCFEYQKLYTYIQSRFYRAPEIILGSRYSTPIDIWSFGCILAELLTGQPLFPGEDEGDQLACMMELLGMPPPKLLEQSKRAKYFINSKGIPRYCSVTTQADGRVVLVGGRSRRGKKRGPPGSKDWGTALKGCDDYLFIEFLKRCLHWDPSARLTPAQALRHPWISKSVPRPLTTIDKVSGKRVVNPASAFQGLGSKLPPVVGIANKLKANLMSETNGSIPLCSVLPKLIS
ERK2, sequence (P28482 whole entry, species assumed): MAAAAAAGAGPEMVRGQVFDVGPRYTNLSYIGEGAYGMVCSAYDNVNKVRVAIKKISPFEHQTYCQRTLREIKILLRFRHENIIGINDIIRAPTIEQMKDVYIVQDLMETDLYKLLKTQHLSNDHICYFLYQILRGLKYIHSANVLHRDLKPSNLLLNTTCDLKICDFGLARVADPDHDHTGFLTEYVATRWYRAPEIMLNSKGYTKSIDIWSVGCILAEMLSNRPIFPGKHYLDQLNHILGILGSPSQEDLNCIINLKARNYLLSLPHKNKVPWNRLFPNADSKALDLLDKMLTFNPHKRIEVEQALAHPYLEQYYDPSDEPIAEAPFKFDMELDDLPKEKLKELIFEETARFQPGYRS

Cc1nn(C)cc1-c1nc2c(Oc3ccc(C(=O)Nc4ccccc4)cc3)c(Cl)cnc2[nH]1 [compound 28c, 4-((6-Chloro-2-(1,3-dimethyl-1H-pyrazol-4-yl)-3H-imidazo[4,5-b]pyridin-7-yl)oxy)-N-phenylbenzamide]
remaining activity at 1 µM (ASK1): 119%
remaining activity at 1 µM (BRSK2): 111%
remaining activity at 1 µM (CHK1): 94%
remaining activity at 1 µM (CLK2): 84%
remaining activity at 1 µM (CSK): 76%
remaining activity at 1 µM (DAPK1): 95%
remaining activity at 1 µM (DYRK3): 102%
remaining activity at 1 µM (EPH-A4): 112%
remaining activity at 1 µM (EPH-B1): 127%
remaining activity at 1 µM (EPH-B3): 106%
remaining activity at 1 µM (EPH-B4): 102%
remaining activity at 1 µM (ERK1): 172%
remaining activity at 1 µM (ERK2): 85%
remaining activity at 1 µM (GCK): 98%
remaining activity at 1 µM (HIPK1): 102%
remaining activity at 1 µM (IKKb): 99%
remaining activity at 1 µM (IKKe): 101%
remaining activity at 1 µM (IR): 124%
remaining activity at 1 µM (JNK3): 87%
remaining activity at 1 µM (MAPKAP-K2): 91%
remaining activity at 1 µM (MAPKAP-K3): 92%
remaining activity at 1 µM (MARK4): 85%
remaining activity at 1 µM (MELK): 79%
remaining activity at 1 µM (MINK1): 75%
remaining activity at 1 µM (MKK2): 94%
remaining activity at 1 µM (MKK6): 95%
remaining activity at 1 µM (MLK1): 31%
remaining activity at 1 µM (MNK1): 126%
remaining activity at 1 µM (MNK2): 109%
remaining activity at 1 µM (NEK2a): 96%
remaining activity at 1 µM (PAK2): 102%
remaining activity at 1 µM (PAK6): 101%
remaining activity at 1 µM (PHK): 101%
remaining activity at 1 µM (PIM2): 117%
remaining activity at 1 µM (PIM3): 102%
remaining activity at 1 µM (PKCz): 100%
remaining activity at 1 µM (PRAK): 103%
remaining activity at 1 µM (TAO1): 100%
remaining activity at 1 µM (YES1): 111%
remaining activity at 1 µM (p38d MAPK): 102%
remaining activity at 1 µM (p38g MAPK): 96%
